Here are results for ten molecules from patent US4232017A, “Treatment of psychic disorders and inflammation with fused isoquinolines” (Gruppo Lepetit S.p.A., priority 1978, dated 1980).

Like-named read-outs stand apart in the source and are kept apart here. Where only a bound is given, the exact number is not on record here.

A word on the LD50: it is the dose expected to kill half of the subjects tested. Read a high LD50 as lower toxicity.

Data set [1] in a line: Acute toxicity (LD50) in mice, oral. The note with it: mouse, in vivo, p.o. The procedure:
(§1) Moreover, they display a considerably low toxicity as, generally, their LD50 values are never lower than 600 mg/Kg when given i.p. and never lower than 1000 mg/Kg when given orally to mice.

The test system of data set [2] is carrageenin induced edema in rats. Kind of data set: carrageenin induced edema test (Winter et al.). The format is in vivo. The settings on record: for significant reduction of the edema over the control: oral, about 1/5 to about 1/10 of the LD50. The method, then: As stated above, the compounds of the invention show also a remarkable antiinflammatory action, which was ascertained by means of the "carrageenin induced edema test" in rats. Said test was performed according to the operative scheme proposed by C. A. Winter et al., Proc., Soc. Exptl.

A short description of data set [3]: Acute toxicity (LD50) in mice, i.p. The settings on record: mouse, in vivo, ip. The procedure: as §1
Data set [4] concerns rats. Kind of data set: pole climbing avoidance test (antianxiety activity; Maffii). The class given is in vivo. The settings on record: for responders at 15 mg/kg / responders at 30 mg/kg / responders at 10 mg/kg / responders at 60 mg/kg: Rattus norvegicus, ip; for responders at 15 mg/kg: 15 mg/Kg i.p.; for responders at 30 mg/kg: 30 mg/Kg i.p.; for influence on the CR and the UR: i.p., about 15 to about 60 mg/Kg; for responders at 10 mg/kg: 10 mg/Kg i.p.; for responders at 60 mg/kg: 60 mg/Kg i.p. The text has this: The CNS-depressant activity in mammals was investigated by means of the general psychophysic screening method, as described by S. Irwin in Psychopharmacologia (Berl.), 13, 222-257, 1968. […] It is to be noted that the above parameters are directly connected with sedative, hypnotic and miorelaxing properties. The antianxiety activity of the compounds of the invention was investigated by means of the "pole climbing avoidance test", performed as described by G. Maffii in Journ. Pharm. Pharmacol., 11, 129, 1959, wherein a conditioned animal (generally a rat) is deconditioned i.e., is brought to its normal psychic behavior by administration of a suitable amount of the compound to be tested. According to G. Maffii, an inhibition of the secondary conditioned response (CR2) without a contemporary or coupled with a not significant inhibition of the primary conditioned response (CR) and the unconditioned response (UR) is a clear indication of an antianxiety effect since these last two parameters are connected with sedative and hypnotic properties.

The mark [5] stands for this setting: read-out: CR2 (secondary conditioned response), Decond./Conditioned.
The mark [6] stands for this setting: read-out: CR (primary conditioned response), Decond./Conditioned.
Setting [7] is: read-out: UR (unconditioned response), Decond./Conditioned.

For `Cc1nc2c3ccccc3c(=O)n(C)c2s1` [Example 1, 2,4-Dimethyl-thiazolo[5,4-c]isoquinoline-5(4H)-one], the LD50 in data set [1] is over 1000 mg/kg. Also, the “% Decrease of the induced edema” value in data set [2] (20 mg/kg p.o.) was determined as 25%; in data set [2] (50 mg/kg p.o.), 38%; in data set [2] (100 mg/kg p.o.) it was 46%; in data set [2] (200 mg/kg p.o.) it was 61%. In addition, the “significant reduction of the edema over the control” value (shortened to “significant reduction of the edema”) in data set [2] is given as at least 40%.

`CCc1nc2c3ccccc3c(=O)n(C)c2s1` [Example 9, 2-Ethyl-4-methyl-thiazolo[5,4-c]isoquinoline-5(4H)-one]: the LD50 in data set [1] is 1000 mg/kg. In addition, the “% Decrease of the induced edema” value in data set [2] (50 mg/kg p.o.) is 25%; in data set [2] (100 mg/kg p.o.) it was 31%; in data set [2] (200 mg/kg p.o.), 40%. In addition, in data set [2], the “significant reduction of the edema” value is at least 40%.

For `CCn1c(=O)c2ccccc2c2nc(C)sc21` [Example 2(N-isomer), 4-Ethyl-2-methyl-thiazolo[5,4-c]isoquinoline-5(4H)-one], in data set [3], the LD50 was found to be 400 mg/kg. Further, the responders at 15 mg/kg in data set [4] (setting [5]) was found to be 50%; in data set [4] (setting [6]), 0%; in data set [4] (setting [7]) it was 0%. In addition, the responders at 30 mg/kg in data set [4] (setting [5]) is 80%; in data set [4] (setting [6]) it was 0%; in data set [4] (setting [7]), 0%. Further, the “influence on the CR and the UR” value in data set [4] was “practically no influence”.

The molecule `Cc1nn(C)c2nc(OCCO)c3ccccc3c12` [Example 20, 5-(2-Hydroxyethoxy)-1,3-dimethyl-3H-pyrazolo[3,4-c]isoquinoline] returned an LD50 in data set [3] of over 600 mg/kg. In addition, in data set [4] (setting [5]), the responders at 10 mg/kg amounted to 60%, the responders at 30 mg/kg was found to be 70% and the responders at 60 mg/kg stood at 90%. Besides, in data set [4] (setting [6]), the responders at 10 mg/kg came out at 10%, the responders at 30 mg/kg is 30% and the responders at 60 mg/kg was 30%. Besides, in data set [4] (setting [7]), the responders at 10 mg/kg was determined as 0%, the responders at 30 mg/kg came to 0% and the responders at 60 mg/kg was determined as 0%. Further, the “influence on the CR and the UR” value in data set [4] is listed as “practically no influence”.

`Cc1nn(C)c2c1c1ccccc1c(=O)n2CCN1CCN(c2ccccc2)CC1.Cl` [Example 38, 1,3-Dimethyl-4-[2-(4-phenyl-1-piperazinyl)ethyl]-3H-pyrazolo[3,4-c]isoquinoline-5(4H)-one hydrochloride] returned an LD50 in data set [3] of over 600 mg/kg. Besides, the values for the responders at 30 mg/kg in data set [4] (setting [5]), in data set [4] (setting [6]) and in data set [4] (setting [7]) were 90%, 10% and 0%, respectively. Also, the results for the responders at 60 mg/kg in data set [4] (setting [5]), in data set [4] (setting [6]) and in data set [4] (setting [7]) were 100%, 40% and 0%, respectively. In addition, in data set [4], the “influence on the CR and the UR” value is listed as “practically no influence”.

Regarding `CCCCn1c(=O)c2ccccc2c2nc(C)sc21` [5(N-isomer), 4-Butyl-2-methyl-thiazolo[5,4-c]isoquinoline-5(4H)-one], the LD50 in data set [3] was 600 mg/kg; in data set [1], over 1000 mg/kg. Further, the responders at 60 mg/kg in data set [4] (setting [5]) was 50%; in data set [4] (setting [6]) it was 0%; in data set [4] (setting [7]) it was 0%. Further, the “% Decrease of the induced edema” value stood at 28% in data set [2] (50 mg/kg p.o.), 37% in data set [2] (100 mg/kg p.o.) and 51% in data set [2] (200 mg/kg p.o.). The “significant reduction of the edema” value in data set [2] is given as at least 40%.

`CCc1nn(C)c2nc(OCCO)c3ccccc3c12` [Example 25, 1-Ethyl-5-hydroxyethoxy-3-methyl-3H-pyrazolo[3,4-c]isoquinoline] registered an LD50 in data set [3] of over 600 mg/kg. The responders at 30 mg/kg came out at 50% in data set [4] (setting [5]), 0% in data set [4] (setting [6]) and 0% in data set [4] (setting [7]). Moreover, the figures for the responders at 60 mg/kg in data set [4] (setting [5]), in data set [4] (setting [6]) and in data set [4] (setting [7]) were 70%, 0% and 0%, respectively. The “influence on the CR and the UR” value in data set [4] is given as “practically no influence”.

In data set [3], `CCCCOc1nc2sc(C)nc2c2ccccc12` [5(O-isomer), 5-butoxy-2-methyl-thiazolo[5,4-c]isoquinoline] showed an LD50 of 600 mg/kg. For the same molecule, the figures for the responders at 60 mg/kg in data set [4] (setting [5]), in data set [4] (setting [6]) and in data set [4] (setting [7]) were 50%, 0% and 0%, respectively.

`CCc1nn(C)c2nc(OCC(C)=O)c3ccccc3c12` [Example 26, 5-Acetylmethoxy-1-ethyl-3-methyl-3H-pyrazolo[3,4-c]isoquinoline]: the LD50 is over 600 mg/kg in data set [3] and over 1000 mg/kg in data set [1]. Also, the responders at 30 mg/kg came out at 50% in data set [4] (setting [5]), 0% in data set [4] (setting [6]) and 0% in data set [4] (setting [7]). In addition, the figures for the responders at 60 mg/kg in data set [4] (setting [5]), in data set [4] (setting [6]) and in data set [4] (setting [7]) were 100%, 0% and 0%, respectively. Moreover, the “influence on the CR and the UR” value in data set [4] is “practically no influence”. For the same molecule, the “% Decrease of the induced edema” value in data set [2] (50 mg/kg p.o.) was 30%; in data set [2] (100 mg/kg p.o.) it was 37%; in data set [2] (200 mg/kg p.o.), 43%. In data set [2], the “significant reduction of the edema” value is at least 40%.

Take `CCCCOc1nc2c(c(C)nn2C)c2ccccc12` [Example 24, 5-Butoxy-1,3-dimethyl-3H-pyrazolo[3,4-c]isoquinoline]: the LD50 in data set [3] was over 600 mg/kg; in data set [1], 1000 mg/kg. The results for the responders at 30 mg/kg in data set [4] (setting [5]), in data set [4] (setting [6]) and in data set [4] (setting [7]) were 60%, 0% and 0%, respectively. Moreover, the results for the responders at 60 mg/kg in data set [4] (setting [5]), in data set [4] (setting [6]) and in data set [4] (setting [7]) were 100%, 30% and 0%, respectively. In addition, the “influence on the CR and the UR” value in data set [4] is “practically no influence”. The “% Decrease of the induced edema” value is given as 26% in data set [2] (50 mg/kg p.o.), 38% in data set [2] (100 mg/kg p.o.) and 45% in data set [2] (200 mg/kg p.o.). Moreover, the “significant reduction of the edema” value in data set [2] is at least 40%.
